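Each compound was tested at five concentrations against cells in 96-well plates for 48 hours. TGI denotes the concentration required for complete inhibition of growth.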
Assays:
Assay in all cases: NCI tumour cell line growth inhibition, 48 h
[1] = test system: SNB-78 CNS
[2] = test system: DMS 114 small cell lung
[3] = test system: SK-MEL-5 melanoma
[4] = test system: SF-295 CNS
[5] = test system: A549 NSCLC
[6] = test system: HCT-15 colon
[7] = test system: OVCAR-8 ovarian
[8] = test system: HOP-62 NSCLC
[9] = test system: MOLT-4 leukemia
[10] = test system: COLO 205 colon
[11] = test system: SN12C renal
[12] = test system: K-562 leukemia
[13] = test system: DMS 273 small cell lung
[14] = test system: XF 498 CNS
[15] = test system: HL-60(TB) leukemia
[16] = test system: UO-31 renal
[17] = test system: HCT-116 colon
[18] = test system: SNB-19 CNS
[19] = test system: SK-MEL-28 melanoma
[20] = test system: HT29 colon
[21] = test system: DLD-1 colon
[22] = test system: SR leukemia
[23] = test system: SK-OV-3 ovarian
[24] = test system: NCI-H23 lung
[25] = test system: M19-MEL melanoma
[26] = test system: CCRF-CEM leukemia
[27] = test system: M14 melanoma
[28] = test system: EKVX NSCLC
[29] = test system: SNB-75 CNS
[30] = test system: IGROV1 ovarian
[31] = test system: SW-620 colon
[32] = test system: LXFL 529 NSCLC
[33] = test system: UACC-62 melanoma
[34] = test system: SF-539 CNS
[35] = test system: KM12 colon
[36] = test system: SF-268 CNS
[37] = test system: OVCAR-4 ovarian
[38] = test system: TK-10 renal
[39] = test system: UACC-257 melanoma
[40] = test system: RPMI-8226 leukemia
[41] = test system: LOX IMVI melanoma
[42] = test system: NCI-H226 lung
[43] = test system: 786-0 renal
[44] = test system: HCC-2998 colon
[45] = test system: OVCAR-3 ovarian
[46] = test system: OVCAR-5 ovarian
[47] = test system: KM20L2 colon
[48] = test system: MALME-3M melanoma
[49] = test system: SK-MEL-2 melanoma
[50] = test system: NCI-H460 lung
[51] = test system: CAKI-1 renal
[52] = test system: ACHN renal
[53] = test system: A498 renal
[54] = test system: U251 CNS

## N#CNC1=NC(Cc2ccccc2)C(=O)N1CCc1c[nH]c2ccccc12 (stereo not given)
[1]
  TGI: 63 µM
[2]
  TGI: 91.9 µM
[3]
  TGI: 41.7 µM
[4]
  TGI: > 100 µM
[5]
  TGI: > 100 µM
[6]
  TGI: > 100 µM
[7]
  TGI: > 100 µM
[8]
  TGI: 92.1 µM
[9]
  TGI: 58.3 µM
[10]
  TGI: 43.6 µM
[11]
  TGI: > 100 µM
[12]
  TGI: > 100 µM
[13]
  TGI: > 100 µM
[14]
  TGI: 68.4 µM
[15]
  TGI: 60.5 µM
[16]
  TGI: 64.5 µM
[17]
  TGI: 50.4 µM
[18]
  TGI: > 100 µM
[19]
  TGI: 67.8 µM
[20]
  TGI: > 100 µM
[21]
  TGI: > 100 µM
[22]
  TGI: > 100 µM
[23]
  TGI: 80.2 µM
[24]
  TGI: > 100 µM
[25]
  TGI: 92.4 µM
[26]
  TGI: 74.6 µM
[27]
  TGI: > 100 µM
[28]
  TGI: 81.5 µM
[29]
  TGI: 33.2 µM
[30]
  TGI: > 100 µM
[31]
  TGI: > 100 µM
[32]
  TGI: > 100 µM
[33]
  TGI: 86 µM
[34]
  TGI: 83.2 µM
[35]
  TGI: > 100 µM
[36]
  TGI: 83.5 µM
[37]
  TGI: > 100 µM
[38]
  TGI: 89.9 µM
[39]
  TGI: > 100 µM
[40]
  TGI: > 100 µM
[41]
  TGI: > 100 µM
[42]
  TGI: > 100 µM
[43]
  TGI: 42.1 µM
[44]
  TGI: 48.6 µM
[45]
  TGI: > 100 µM

## CCc1cccc(C(C)CC)c1NC(=O)CC1C(=O)Nc2ccccc2S1(=O)=O (stereo not given)
[1]
  TGI: 65.5 µM
[2]
  TGI: 39.2 µM
[46]
  TGI: > 100 µM
[3]
  TGI: > 100 µM
[4]
  TGI: > 100 µM
[5]
  TGI: 70 µM
[6]
  TGI: 48.7 µM
[7]
  TGI: 15.9 µM
[8]
  TGI: > 100 µM
[9]
  TGI: 41.5 µM
[47]
  TGI: > 100 µM
[48]
  TGI: > 100 µM
[10]
  TGI: 44.5 µM
[49]
  TGI: > 100 µM
[11]
  TGI: > 100 µM
[12]
  TGI: 28.5 µM
[13]
  TGI: 71.3 µM
[14]
  TGI: > 100 µM
[16]
  TGI: 96.2 µM
[18]
  TGI: > 100 µM
[19]
  TGI: > 100 µM
[20]
  TGI: 47.9 µM
[21]
  TGI: 33.2 µM
[23]
  TGI: 99.2 µM
[24]
  TGI: 40.1 µM
[25]
  TGI: > 100 µM
[26]
  TGI: 30.5 µM
[50]
  TGI: > 100 µM
[27]
  TGI: > 100 µM
[28]
  TGI: 44.3 µM
[51]
  TGI: 40.2 µM
[29]
  TGI: 94.6 µM
[30]
  TGI: > 100 µM
[31]
  TGI: 28.7 µM
[32]
  TGI: 24.5 µM
[33]
  TGI: > 100 µM
[52]
  TGI: > 100 µM
[34]
  TGI: 52.1 µM
[35]
  TGI: 40.5 µM
[36]
  TGI: > 100 µM
[37]
  TGI: 39.9 µM
[38]
  TGI: 84.5 µM
[39]
  TGI: > 100 µM
[53]
  TGI: 72.6 µM
[40]
  TGI: 43.3 µM
[41]
  TGI: 39.9 µM
[54]
  TGI: > 100 µM
[43]
  TGI: 33.6 µM
[44]
  TGI: 22.1 µM
[45]
  TGI: 38.2 µM

— PubChem BioAssay (NCI)
